According to ChEMBL document CHEMBL1201862, “PubChem BioAssay data set” (2004):
Calls of active or inactive are those of the source.

How the values were obtained:
[1] = viability of uninfected HEp-2 cells – cell-based, HTS, cytotoxicity control for RSV inhibitor project, dose response (AID 2410); type: functional; conditions: human respiratory syncytial virus
[2] = blockers of HIV-1 envelope-mediated cell-cell fusion – cherry-pick, dose response (AID 652057); type: functional, cell-based
[3] = blockers of HIV-1 ZM109 envelope-driven cell-cell fusion – HeLa effector, CEM target cells, luciferase, cherry-pick, dose response (AID 652058); type: functional, cell-based;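 note: luciferase signal from HIV-1 Env mediated cell-cell fusion of effector and target cells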
[4] = off-target signal loss in HeLa-CEM21 co-culture – HeLa F-luc CTL cells, cherry-picked, counter-screen for HIV-1 Env fusion inhibitor project, dose response (AID 652040); type: functional, cell-based;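 note: potency for signal decrease marking cytotoxic or nonspecific inhibition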
[5] = HIV-1 AD8 envelope cell-cell fusion blockers – cherry-pick, dose response (AID 652062); type: functional, cell-based;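 note: luciferase signal from cell-cell fusion driven by HIV-1 clade B AD8 Env; potency is for inhibitors of fusion seen as a drop in luminescence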
cells [6] = test: cells
[7] = molecular target: T1, Heat shock factor protein 1 (Mus musculus, UniProt P38532); test: decrease of HSF1-responsive luciferase luminescence – cell-based, NIH3T3, dose retest, confirmation (AID 2382); type: functional;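 note: NIH3T3 fibroblasts with HSF1-driven luciferase reporter stressed by proteasome inhibitor MG132; luminescence from HSF1-driven luciferase expression after 8 hours of MG132 stress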
T1 sequence (P38532 whole entry): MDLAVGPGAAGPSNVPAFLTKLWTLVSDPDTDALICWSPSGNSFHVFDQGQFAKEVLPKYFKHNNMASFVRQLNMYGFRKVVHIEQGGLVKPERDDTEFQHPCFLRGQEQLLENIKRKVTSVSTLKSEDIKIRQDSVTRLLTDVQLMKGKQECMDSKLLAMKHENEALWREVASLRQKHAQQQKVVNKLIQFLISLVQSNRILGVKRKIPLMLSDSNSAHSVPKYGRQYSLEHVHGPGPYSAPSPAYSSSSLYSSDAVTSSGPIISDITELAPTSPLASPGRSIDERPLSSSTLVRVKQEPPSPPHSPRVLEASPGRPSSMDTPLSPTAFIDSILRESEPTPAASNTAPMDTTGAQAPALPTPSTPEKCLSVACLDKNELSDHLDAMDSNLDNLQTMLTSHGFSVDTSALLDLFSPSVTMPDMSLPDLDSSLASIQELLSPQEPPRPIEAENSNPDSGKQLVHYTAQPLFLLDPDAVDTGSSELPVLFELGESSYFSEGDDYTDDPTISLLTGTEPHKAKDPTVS

[8] = molecular target: Photoreceptor-specific nuclear receptor (Homo sapiens, UniProt Q9Y5X4); type: functional, cell-based;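 note: CHO-S cells with Gal4-NCOR and VP16-NR2E3 two-hybrid luciferase reporter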
[9] = molecular target: T2, Hepatocyte nuclear factor 4-alpha (Homo sapiens, UniProt P41235); type: functional, cell-based;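 note: biochemical luminescence-based dose-response counterscreen measuring inhibition of HNF4 dimerization, run alongside a screen for blockers of ABHD5–perilipin-5 interaction; split luciferase complementation of HNF4 fusion proteins in cell lysate measuring dimerization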
T2 sequence (P41235 whole entry): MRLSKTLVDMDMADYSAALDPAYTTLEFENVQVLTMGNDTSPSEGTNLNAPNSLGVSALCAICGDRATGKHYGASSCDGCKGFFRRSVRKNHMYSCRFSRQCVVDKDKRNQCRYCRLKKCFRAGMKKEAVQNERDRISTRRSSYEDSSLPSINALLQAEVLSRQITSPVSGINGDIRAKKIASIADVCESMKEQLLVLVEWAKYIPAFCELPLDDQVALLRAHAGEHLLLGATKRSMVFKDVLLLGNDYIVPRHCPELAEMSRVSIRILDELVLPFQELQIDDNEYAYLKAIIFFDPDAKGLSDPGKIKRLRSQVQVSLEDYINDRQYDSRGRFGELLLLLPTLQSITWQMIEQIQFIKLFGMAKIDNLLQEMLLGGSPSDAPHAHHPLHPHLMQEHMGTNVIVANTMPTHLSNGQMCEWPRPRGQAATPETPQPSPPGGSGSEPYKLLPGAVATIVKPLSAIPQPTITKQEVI

[10] = viability of PTEN-deleted HCT116 cells – cell-based, HCT116 PTEN knockout, dose response (AID 1047); type: functional;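 note: HCT116 colon tumor cells with PTEN knocked out; cells exposed to compound for 60 hours before readout; potency for loss of cell viability measured by luminescence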
[11] = viability of HCT116 lacking mutant beta-catenin – cell-based, human colon tumor, dose response (AID 1045); type: functional;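 note: HCT116 colon tumor cells with beta catenin knocked out; cells exposed to compound for 60 hours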
[12] = Luminescence Cell-Based Dose Retest to Confirm Inhibitors of Cancer Stem Cells. [Related pubchem assays (depositor defined):AID2717, AID2721]; type: functional; conditions: Homo sapiens
[13] = luciferase reporter signal suppression in cells – H4 neuroglioma cells, luminescence, dose response (AID 1990); type: functional, cell-based
[14] = luciferase reporter signal reduction – luminescence, H4-C neuroglioblastoma cells, dose response (AID 2458); type: functional, cell-based;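 note: H4 neuroglioblastoma cells stably carrying a luciferase reporter gene fusion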
BJ [15] = test: BJ-TERT fibroblast viability loss – cell-based, RAS-independent, luminescence, dose response (AID 1933); type: functional; conditions: Homo sapiens
cells [16] = type: functional, cell-based
[17] = Luminescence Cell-Based Dose Response HTS to Identify Inhibitors of 5'UTR Stem-Loop Driven Prion Protein mRNA Translation in H4 Neuroglioblastoma Cells. [Related pubchem assays: 1827 (Project Summary), 1813 (Primary HTS)]; type: functional
[18] = alpha-synuclein stem-loop luciferase translation blockers – H4 neuroglioma cells, luminescence, confirmation (AID 1988); type: functional, cell-based
BJ [19] = test: cells; type: functional, cell-based; conditions: Homo sapiens
BJ [20] = test: BJ-TERT-LT-ST fibroblast viability loss – cell-based, RAS-independent, luminescence, dose response (AID 1935); type: functional; conditions: Homo sapiens;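 note: BJ fibroblasts immortalized with TERT plus LT and ST oncogenes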
[21] = DRD fibroblast viability loss – cell-based, non-viral oncogenic, luminescence, dose response (AID 1934); type: functional; conditions: Homo sapiens
[22] = alpha-synuclein stem-loop translation blockers – luminescence, H4 neuroglioblastoma cells, dose confirmation, confirmation (AID 2454); type: functional, cell-based;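 note: H4 neuroglioblastoma cells carrying an alpha-synuclein 5'UTR luciferase reporter; potency for inhibition of the luciferase signal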
cells [23] = type: functional, cell-based; remark: listed apart in the source
[24] = molecular target: T3, Nuclear receptor subfamily 0 group B member 1 (Homo sapiens, UniProt P51843); type: functional, cell-based;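 note: HEK293T cells transfected with SF-1 and DAX-1 plus StAR promoter luciferase reporter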
T3 sequence (P51843 whole entry): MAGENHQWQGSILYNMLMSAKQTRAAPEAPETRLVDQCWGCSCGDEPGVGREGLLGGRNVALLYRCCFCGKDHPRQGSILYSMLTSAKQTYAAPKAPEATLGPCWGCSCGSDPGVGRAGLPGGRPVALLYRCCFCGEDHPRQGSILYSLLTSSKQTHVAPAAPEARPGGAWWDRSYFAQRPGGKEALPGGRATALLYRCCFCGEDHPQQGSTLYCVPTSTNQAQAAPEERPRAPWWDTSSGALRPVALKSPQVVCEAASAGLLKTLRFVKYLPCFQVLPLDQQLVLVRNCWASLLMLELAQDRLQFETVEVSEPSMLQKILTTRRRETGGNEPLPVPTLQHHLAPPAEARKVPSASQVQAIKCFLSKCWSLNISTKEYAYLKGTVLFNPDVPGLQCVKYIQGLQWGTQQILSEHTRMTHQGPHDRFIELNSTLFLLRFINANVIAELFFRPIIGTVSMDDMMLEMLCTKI

[25] = molecular target: T4, Low molecular weight phosphotyrosine protein phosphatase (Homo sapiens, UniProt P24666); type: functional; conditions: read-out: IC50_Mean
T4 sequence (P24666 whole entry): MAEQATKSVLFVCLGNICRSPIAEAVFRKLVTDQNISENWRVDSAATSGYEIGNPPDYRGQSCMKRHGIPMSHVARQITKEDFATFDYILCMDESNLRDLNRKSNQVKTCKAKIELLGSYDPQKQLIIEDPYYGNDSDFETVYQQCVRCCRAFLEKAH

[26] = molecular target: T4, Low molecular weight phosphotyrosine protein phosphatase; type: functional; conditions: read-out: IC50_Mean; remark: listed apart in the source
Protein skinhead-1 = molecular target: T5, Protein skinhead-1 (Caenorhabditis elegans, UniProt P34707); type: functional
T5 sequence (P34707 whole entry): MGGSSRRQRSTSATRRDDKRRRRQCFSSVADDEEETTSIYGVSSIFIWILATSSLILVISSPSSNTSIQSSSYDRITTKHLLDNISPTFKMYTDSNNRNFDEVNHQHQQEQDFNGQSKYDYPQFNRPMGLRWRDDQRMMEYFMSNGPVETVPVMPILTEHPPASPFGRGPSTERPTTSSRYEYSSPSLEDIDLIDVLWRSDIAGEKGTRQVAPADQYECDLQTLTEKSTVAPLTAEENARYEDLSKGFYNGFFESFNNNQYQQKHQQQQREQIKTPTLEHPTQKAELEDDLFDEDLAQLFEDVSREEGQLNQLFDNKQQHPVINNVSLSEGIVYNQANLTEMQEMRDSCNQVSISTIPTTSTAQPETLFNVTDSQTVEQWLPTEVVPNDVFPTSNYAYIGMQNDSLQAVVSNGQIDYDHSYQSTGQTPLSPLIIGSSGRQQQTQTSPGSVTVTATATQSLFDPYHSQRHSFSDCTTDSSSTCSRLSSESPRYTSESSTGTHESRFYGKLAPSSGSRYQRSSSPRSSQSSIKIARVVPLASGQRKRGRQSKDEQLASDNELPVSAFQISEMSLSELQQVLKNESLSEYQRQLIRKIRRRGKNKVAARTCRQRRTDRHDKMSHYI

[27] = activation of miR-122 Renilla sensor silencing – cell-based, Huh7 psiCHECK-miR122, Renilla luciferase, cherry-picked, dose response (AID 651956); type: functional;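 note: huh7 hepatoma cells stably carrying a psiCHECK-2 miR-122 sensor plasmid; renilla luciferase signal reporting endogenous miR-122 activity after 48 h compound exposure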
[28] = molecular target: T6, DNA repair and recombination protein RAD54-like (Homo sapiens, UniProt Q92698); test: RAD54 Holliday junction migration blockers – biochemical, fluorescence, cherry-picked samples, dose series, confirmation (AID 651657); type: functional
T6 sequence (Q92698 whole entry): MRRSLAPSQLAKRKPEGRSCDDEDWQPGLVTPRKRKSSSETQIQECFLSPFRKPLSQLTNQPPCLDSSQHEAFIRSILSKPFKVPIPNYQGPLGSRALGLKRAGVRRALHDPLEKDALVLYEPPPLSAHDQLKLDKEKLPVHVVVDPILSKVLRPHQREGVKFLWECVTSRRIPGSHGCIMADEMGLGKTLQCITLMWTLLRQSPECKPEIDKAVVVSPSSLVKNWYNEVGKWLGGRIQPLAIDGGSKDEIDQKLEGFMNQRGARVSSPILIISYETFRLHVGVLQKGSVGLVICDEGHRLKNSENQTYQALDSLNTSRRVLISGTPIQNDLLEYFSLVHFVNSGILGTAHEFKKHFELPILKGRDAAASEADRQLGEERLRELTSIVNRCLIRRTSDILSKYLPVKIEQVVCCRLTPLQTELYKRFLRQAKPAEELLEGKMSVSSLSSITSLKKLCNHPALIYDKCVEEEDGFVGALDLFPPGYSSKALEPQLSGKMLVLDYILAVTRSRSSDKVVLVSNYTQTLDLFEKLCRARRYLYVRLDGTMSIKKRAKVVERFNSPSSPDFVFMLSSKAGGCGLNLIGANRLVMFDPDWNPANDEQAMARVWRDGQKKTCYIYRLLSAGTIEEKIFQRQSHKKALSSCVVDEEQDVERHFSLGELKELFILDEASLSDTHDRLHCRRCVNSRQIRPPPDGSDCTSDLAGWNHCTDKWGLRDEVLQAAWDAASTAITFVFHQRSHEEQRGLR

Chain of Photoreceptor-specific nuclear receptor (Q9Y5X4 whole entry, the tested form may be a part): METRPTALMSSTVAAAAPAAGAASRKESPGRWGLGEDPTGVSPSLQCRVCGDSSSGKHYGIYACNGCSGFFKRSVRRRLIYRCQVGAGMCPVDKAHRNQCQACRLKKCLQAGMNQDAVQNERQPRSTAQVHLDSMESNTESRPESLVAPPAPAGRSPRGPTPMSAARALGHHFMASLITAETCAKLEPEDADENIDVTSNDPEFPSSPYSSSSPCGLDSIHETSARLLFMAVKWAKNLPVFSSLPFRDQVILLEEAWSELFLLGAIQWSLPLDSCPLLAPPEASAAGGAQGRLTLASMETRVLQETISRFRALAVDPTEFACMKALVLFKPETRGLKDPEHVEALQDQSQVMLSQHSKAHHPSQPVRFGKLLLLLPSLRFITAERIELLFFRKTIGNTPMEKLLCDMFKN

O=C(NCc1ccco1)c1ccc(Cn2c(=O)c3sccc3n(Cc3ccc(F)cc3)c2=O)cc1
CC50 [1]: 44.8 µM (active) | AC50 [2]: < 0.26 µM (active) | AC50 [3]: 0.349 µM (active) | AC50 [4]: < 0.26 µM (active) | AC50 [5]: 0.665 µM (active) | IC50 (cells [6]): 4.76 µM (active)

C=C1CCN([C@@H](Cc2ccccc2)C(=O)Nc2ccc(OC)cc2)S(=O)(=O)c2ccccc21
AC50 [2]: 0.923 µM (active) | AC50 [3]: 0.848 µM (active) | AC50 [4]: 1.31 µM (active) | AC50 [5]: 2.03 µM (active)

CCOC(=O)Cc1nnc2c(Nc3ccccc3F)nc3nonc3n12
EC50 [7]: > 195 µM (not active) | IC50 [8]: 3.87 µM (active)

CCCCCNC(=O)C(C1CC1)n1c(=O)c(-c2ccco2)nc2ccccc21 (stereo unspecified)
IC50 [9]: 6.11 µM (active)

O=C/C(=N\Nc1ccc(Cl)cc1)C(=O)c1ccncc1
EC50 [10]: 116 µM (active) | EC50 [11]: 42.2 µM (active) | AC50 [12]: 5.23 µM (active) | IC50 [9]: 28.9 µM (inactive)

Cc1sc(NC(=O)/C=C/c2ccc3c(c2)OCO3)nc1-c1ccccc1
IC50 [8]: 7.04 µM (active)

CCOC(=O)CSC1=C(C#N)C(c2ccc(C)o2)CC(=O)N1 (stereo unspecified)
EC50 [13]: 2.61 µM (active) | EC50 [14]: 0.961 µM (active) | EC50 (BJ [15]): 1.31 µM (active) | EC50 (cells [16]): 1.56 µM (active) | EC50 [17]: 0.894 µM (active) | EC50 [18]: < 0.1 µM (active) | EC50 (BJ [19]): 14.9 µM (active) | EC50 (BJ [20]): 1.36 µM (active) | EC50 [21]: 1.04 µM (active) | EC50 [22]: > 12 µM (inconclusive) | IC50 (cells [23]): > 67.6 µM (inactive) | IC50 [24]: > 67.6 µM (inactive)

CCCCCn1c(N)c(-c2nc3ccccc3o2)c2c([N+](=O)[O-])nn(CC)c(=O)c21
IC50 [25]: 5.88 µM (active) | IC50 [26]: 8.25 µM (active)

CN1CCc2c(sc(/N=C/c3c[nH]c4ccccc34)c2C(N)=O)C1
IC50 [25]: > 80 µM (inactive) | IC50 [26]: 57.2 µM (inactive)

O=C(/C(=C/Nc1ccc(Br)cc1)C(=O)C(F)(F)F)c1ccco1
IC50 (Protein skinhead-1): 27.2 µM (active) | IC50 (cells [23]): > 67.5 µM (inactive) | IC50 [24]: > 67.5 µM (inactive)

COC(=O)C[C@@H]1CC[C@@H]2[C@H](COc3ccc(NC(=O)Nc4cccc(F)c4)cc3C(=O)N2C)O1
AC50 [27]: 40.1 µM (active)

CN(C)c1cc(NC(=O)CNC(C)(C)C)c2ccccc2n1
AC50 [28]: 16.4 µM (active)

COCC(=O)N(C)C[C@H]1[C@H](c2ccccc2)[C@@H](CO)N1C(=O)NC(C)C
AC50 [27]: 50.3 µM (active)

CCOC(=O)c1cnc2c(CC)cccc2c1NCCCN1CCOCC1
AC50 [28]: 21.6 µM (active)
